Source: article PMC3914206

Experiments:
panel of 442 kinases [1] = biological target: T1, panel of 442 kinases (Homo sapiens, UniProt P54756); format: binding; details: Compound Concentration 10 µM
T1 construct: purchased KINOMEscan
Source text: (§1) We assessed the selectivity of members of this scaffold using the KINOMEscan methodology across a near comprehensive panel of 442 kinases [[18,27]].

panel of 442 kinases [2] = biological target: T2, panel of 442 kinases (Homo sapiens, UniProt Q96PY6); format: binding; details: Compound Concentration 10 µM
T2 construct: purchased KINOMEscan
T2 sequence (Q96PY6 1-1258): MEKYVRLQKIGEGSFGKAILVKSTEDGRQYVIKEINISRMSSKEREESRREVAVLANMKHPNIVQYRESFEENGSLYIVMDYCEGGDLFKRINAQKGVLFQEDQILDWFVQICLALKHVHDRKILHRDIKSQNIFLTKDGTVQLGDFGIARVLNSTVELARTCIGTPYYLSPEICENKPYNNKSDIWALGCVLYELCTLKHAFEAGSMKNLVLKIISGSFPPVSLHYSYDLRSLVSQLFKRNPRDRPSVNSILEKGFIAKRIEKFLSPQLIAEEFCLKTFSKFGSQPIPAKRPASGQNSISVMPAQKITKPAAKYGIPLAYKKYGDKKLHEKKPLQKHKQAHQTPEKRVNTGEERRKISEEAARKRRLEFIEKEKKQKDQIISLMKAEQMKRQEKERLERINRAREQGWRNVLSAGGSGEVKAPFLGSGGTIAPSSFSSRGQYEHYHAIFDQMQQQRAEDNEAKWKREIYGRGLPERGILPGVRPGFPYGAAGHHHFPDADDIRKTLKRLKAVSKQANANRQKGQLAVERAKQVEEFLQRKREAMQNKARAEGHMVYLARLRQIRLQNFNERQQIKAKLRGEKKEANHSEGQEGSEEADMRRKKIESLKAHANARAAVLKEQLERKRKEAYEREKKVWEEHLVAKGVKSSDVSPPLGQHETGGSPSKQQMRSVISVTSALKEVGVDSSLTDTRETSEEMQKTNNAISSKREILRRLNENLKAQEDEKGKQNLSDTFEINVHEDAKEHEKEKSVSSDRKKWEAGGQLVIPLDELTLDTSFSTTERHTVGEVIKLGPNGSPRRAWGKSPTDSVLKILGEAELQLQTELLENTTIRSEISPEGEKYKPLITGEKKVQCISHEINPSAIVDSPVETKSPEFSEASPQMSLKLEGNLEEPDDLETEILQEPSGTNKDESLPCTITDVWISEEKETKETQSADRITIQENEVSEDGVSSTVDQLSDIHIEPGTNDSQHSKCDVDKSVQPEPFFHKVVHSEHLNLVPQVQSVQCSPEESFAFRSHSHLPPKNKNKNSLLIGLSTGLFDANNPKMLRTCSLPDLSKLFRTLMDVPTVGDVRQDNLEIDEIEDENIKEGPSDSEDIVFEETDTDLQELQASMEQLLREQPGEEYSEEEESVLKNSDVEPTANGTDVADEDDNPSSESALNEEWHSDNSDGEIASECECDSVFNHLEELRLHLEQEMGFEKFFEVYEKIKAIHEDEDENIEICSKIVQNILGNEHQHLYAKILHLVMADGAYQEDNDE
Source text: as §1

T1 sequence (P54756 25-1037): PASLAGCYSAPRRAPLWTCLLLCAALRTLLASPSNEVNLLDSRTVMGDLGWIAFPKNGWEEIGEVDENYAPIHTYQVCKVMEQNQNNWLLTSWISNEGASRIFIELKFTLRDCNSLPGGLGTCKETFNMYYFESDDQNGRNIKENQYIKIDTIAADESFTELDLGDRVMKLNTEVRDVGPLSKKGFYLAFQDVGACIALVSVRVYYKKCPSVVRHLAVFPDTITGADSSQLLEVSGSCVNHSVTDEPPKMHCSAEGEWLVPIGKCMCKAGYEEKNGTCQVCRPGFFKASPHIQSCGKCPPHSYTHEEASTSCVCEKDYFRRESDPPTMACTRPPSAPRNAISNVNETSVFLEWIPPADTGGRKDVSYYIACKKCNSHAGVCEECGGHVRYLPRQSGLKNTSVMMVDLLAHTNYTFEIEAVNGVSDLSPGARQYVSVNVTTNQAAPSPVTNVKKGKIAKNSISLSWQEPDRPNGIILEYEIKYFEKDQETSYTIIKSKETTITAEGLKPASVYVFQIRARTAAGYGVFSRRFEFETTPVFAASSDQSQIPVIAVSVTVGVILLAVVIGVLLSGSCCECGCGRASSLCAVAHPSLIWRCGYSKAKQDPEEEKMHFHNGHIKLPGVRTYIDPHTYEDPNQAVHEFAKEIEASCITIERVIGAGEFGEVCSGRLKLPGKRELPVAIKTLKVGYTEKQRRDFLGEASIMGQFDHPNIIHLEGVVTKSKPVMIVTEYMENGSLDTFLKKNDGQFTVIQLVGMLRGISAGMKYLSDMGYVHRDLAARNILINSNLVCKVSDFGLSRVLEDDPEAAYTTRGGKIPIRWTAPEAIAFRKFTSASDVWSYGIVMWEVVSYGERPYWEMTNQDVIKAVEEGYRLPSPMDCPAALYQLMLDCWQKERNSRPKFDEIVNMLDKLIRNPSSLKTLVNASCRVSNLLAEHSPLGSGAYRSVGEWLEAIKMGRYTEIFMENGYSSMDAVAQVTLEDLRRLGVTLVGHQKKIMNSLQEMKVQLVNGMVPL

Row | Structure (SMILES) | KINOMEscan: EPHA5 (panel of 442 kinases [1]) | KINOMEscan: NEK1 (panel of 442 kinases [2])
1 | CCOc1cc(C(=O)N2CCC(N3CCN(C)CC3)CC2)ccc1Nc1ncc2c(n1)N(C1CCCC1)c1ccccc1C(=O)N2C [Compound 26] | 100 | 84
2 | COc1cc(C(=O)N2CCC(N3CCN(C)CC3)CC2)ccc1Nc1ncc2c(n1)N1CCc3cccc(c31)C(=O)N2C [Compound 24] | 94 | 63
3 | COc1cc(C(=O)N2CCC(N3CCN(C)CC3)CC2)ccc1Nc1ncc2c(n1)N(C)c1ccccc1C(=O)N2C [15 (LRRK2-IN-1)] | 95 | 83
4 | COc1cc(C(=O)N2CCC(N3CCN(C)CC3)CC2)ccc1Nc1ncc2c(n1)N(C1CCCC1)c1ccccc1C(=O)N2C [Compound 25, 11-cyclopentyl-2-((2-methoxy-4-(4-(4-methylpiperazin-1-yl)piperidine-1-carbonyl)phenyl)amino)-5-methyl-5H-benzo[e]pyrimido[5,4-b][1,4]diazepin-6(11H)-one] | 99 | 72
